# Measurements published in article PMC9649612, “Molecular docking and biochemical validation of (-)-syringaresinol-4-O-β-D-apiofuranosyl-(1→2)-β-D-glucopyranoside binding to an allosteric site in monoamine transporters” (Frontiers in Pharmacology, 2022).
# What was measured:
# WT-hDAT = biological target: T1, WT-hDAT (Homo sapiens, UniProt Q01959); test: APP+ transport (uptake) in HeLa cells expressing WT-hDAT; type: cell-based; conditions: hDAT; kinetic analysis
# T1 construct: expressed in transfected cells; host or cells: HeLa
# Method: (§1) HeLa cells were cultured in Dulbecco’s Modified Eagle’s Medium supplemented with 10% fetal bovine serum, 100 units/ml penicillin, and 100 μg/ml streptomycin at 37°C in a humidified 5% CO2 incubator. Cells were plated in a 6-well culture plate and grown overnight. Cells at ∼70% confluence were transfected with hSERT, hDAT, or hNET cDNA in pcDNA3.1 by lipofectamine 2000. Transfected cells were incubated for 24 h at 37°C with 5% CO2 and then transferred into a 12-well plate placed with polylysine coated slides. After grown for additional 12–16 h, the cells were assayed for APP^+ or ASP^+ fluorescence image acquisition.
# (§2) The cells expressing WT or mutants of hSERT, hDAT, or hNET were wet mounted on polylysine coated glass slides in 12-well plates and applied for the indicated treatments. […] The extent of APP^+ accumulated in the cells was determined by confocal imaging analysis. ASP^+ binding to SERT in the cell membrane was measured with digitonin-permeabilized cells ([Li M. et al., 2022a]). […] After removing excess ASP^+ by rapid washing three times, ASP^+ binding was determined by confocal imaging analysis.
# (§3) Images were analyzed using Zen Blue software.
# (§4) Nonlinear regression fits of experimental and calculated data were performed with Origin (Origin Lab). […]
# WT-hNET = biological target: T2, WT-hNET (Homo sapiens, UniProt P23975); test: APP+ transport (uptake) in HeLa cells expressing WT-hNET; type: cell-based; conditions: hNET; kinetic analysis
# T2 construct: expressed in transfected cells; host or cells: HeLa
# Method: as §1, §2, §3, §4
# WT-hSERT = biological target: T3, WT-hSERT (Homo sapiens, UniProt P31645); set-up: method as in our previous experiments; conditions: ref our previous experiments, read-out: Km for APP+ transport; cited from earlier work
# T3 construct: expressed in transfected cells; host or cells: HeLa (ATCC CCL-2), transient, pcDNA3.1
# T3 sequence (P31645 whole entry): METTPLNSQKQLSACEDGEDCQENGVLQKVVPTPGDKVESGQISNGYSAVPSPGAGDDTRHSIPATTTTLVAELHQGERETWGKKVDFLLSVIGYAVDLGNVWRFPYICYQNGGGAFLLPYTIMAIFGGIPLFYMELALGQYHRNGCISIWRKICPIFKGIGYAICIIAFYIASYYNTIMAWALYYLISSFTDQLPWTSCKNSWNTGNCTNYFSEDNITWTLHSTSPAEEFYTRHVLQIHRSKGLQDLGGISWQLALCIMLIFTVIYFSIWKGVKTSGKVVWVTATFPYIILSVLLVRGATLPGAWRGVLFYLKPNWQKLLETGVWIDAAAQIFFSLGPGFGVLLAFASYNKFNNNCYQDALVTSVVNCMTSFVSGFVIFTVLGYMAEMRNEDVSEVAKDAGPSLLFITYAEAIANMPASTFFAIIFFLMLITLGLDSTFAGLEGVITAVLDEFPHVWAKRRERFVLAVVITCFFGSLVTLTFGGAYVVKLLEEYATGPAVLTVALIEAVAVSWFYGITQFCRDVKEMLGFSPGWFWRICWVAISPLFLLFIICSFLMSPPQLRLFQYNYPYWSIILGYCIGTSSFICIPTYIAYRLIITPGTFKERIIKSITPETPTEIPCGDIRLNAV
# T1 sequence (Q01959 whole entry): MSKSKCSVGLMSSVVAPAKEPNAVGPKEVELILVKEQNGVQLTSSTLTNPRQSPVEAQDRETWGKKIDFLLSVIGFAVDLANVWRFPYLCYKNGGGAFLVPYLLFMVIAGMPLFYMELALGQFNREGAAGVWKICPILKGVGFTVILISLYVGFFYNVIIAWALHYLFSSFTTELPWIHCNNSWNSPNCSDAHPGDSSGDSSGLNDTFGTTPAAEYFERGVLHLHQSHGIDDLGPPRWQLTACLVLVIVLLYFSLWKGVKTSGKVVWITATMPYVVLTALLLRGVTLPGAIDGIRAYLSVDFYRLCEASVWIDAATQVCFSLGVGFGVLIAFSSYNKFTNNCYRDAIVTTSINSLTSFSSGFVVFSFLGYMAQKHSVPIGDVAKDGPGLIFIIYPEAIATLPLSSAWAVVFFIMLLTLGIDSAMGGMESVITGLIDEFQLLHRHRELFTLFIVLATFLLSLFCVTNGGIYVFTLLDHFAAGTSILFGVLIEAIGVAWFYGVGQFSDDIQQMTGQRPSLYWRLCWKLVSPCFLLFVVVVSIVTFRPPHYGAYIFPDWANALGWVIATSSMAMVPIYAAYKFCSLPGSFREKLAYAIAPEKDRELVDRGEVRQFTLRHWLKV
# T2 sequence (P23975 whole entry): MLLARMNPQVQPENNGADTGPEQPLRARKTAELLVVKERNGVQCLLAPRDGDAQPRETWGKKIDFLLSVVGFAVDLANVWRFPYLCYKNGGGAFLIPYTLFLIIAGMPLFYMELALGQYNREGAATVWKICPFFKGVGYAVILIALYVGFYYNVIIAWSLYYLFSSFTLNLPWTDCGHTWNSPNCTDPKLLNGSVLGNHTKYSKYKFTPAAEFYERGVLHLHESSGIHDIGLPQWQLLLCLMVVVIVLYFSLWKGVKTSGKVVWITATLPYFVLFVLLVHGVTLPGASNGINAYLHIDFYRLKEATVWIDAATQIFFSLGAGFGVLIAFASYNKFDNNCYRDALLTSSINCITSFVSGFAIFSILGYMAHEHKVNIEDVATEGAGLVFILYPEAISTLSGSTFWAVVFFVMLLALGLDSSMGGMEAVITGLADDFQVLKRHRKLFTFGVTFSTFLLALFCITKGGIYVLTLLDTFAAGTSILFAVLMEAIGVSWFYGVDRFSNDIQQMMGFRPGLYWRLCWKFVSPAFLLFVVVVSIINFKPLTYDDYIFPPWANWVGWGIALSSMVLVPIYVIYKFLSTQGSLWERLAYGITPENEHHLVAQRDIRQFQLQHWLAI
substance,measurement,setting,value
"4-[4-(Dimethylamino)phenyl]-1-methylpyridinium [APP^+, reference compound]",Km,WT-hDAT,2.89 ± 0.48 µM
same,Km,WT-hNET,1.56 ± 0.22 µM
same,Km,WT-hSERT,2.63 ± 0.16 µM
